Source: BindingDB's records for doi:10.1021/acsmedchemlett.8b00158 (Utah State University, 2018)

Experiment: Inhibition of recombinant human Cx26 expressed in Escherichia coli LB2003 assessed as reduction in cell growth measured after 18 hrs

Row | Compound | IC50
1 | CCCCCCO[C@H]1[C@H](N)[C@@H](O)[C@H](O[C@@H]2[C@@H](O)[C@H](O[C@H]3O[C@H](CN)[C@@H](O)[C@H](O)[C@H]3O)[C@@H](N)C[C@H]2N)O[C@@H]1CO | 13.5 µM
2 | CCCCOC[C@H]1O[C@@H](O[C@@H]2[C@@H](O)[C@H](O[C@H]3O[C@H](CN)[C@@H](O)[C@H](O)[C@H]3O)[C@@H](N)C[C@H]2N)[C@H](O)[C@@H](N)[C@@H]1OCCCC | 19 µM
3 | CCCCCCOC[C@H]1O[C@@H](O[C@@H]2[C@@H](O)[C@H](O[C@H]3O[C@H](CN)[C@@H](O)[C@H](O)[C@H]3O)[C@@H](N)C[C@H]2N)[C@H](O)[C@@H](N)[C@@H]1OCCCCCC | 6.2 µM
4 | NC[C@H]1O[C@H](O[C@H]2[C@H](O)[C@@H](O[C@@H]3O[C@H](COCc4ccc5ccccc5c4)[C@@H](OCc4ccc5ccccc5c4)[C@H](N)[C@H]3O)[C@H](N)C[C@@H]2N)[C@H](O)[C@@H](O)[C@@H]1O | 4.9 µM
5 | CO[C@@H]1[C@@H](O[C@@H]2O[C@H](COCc3ccccc3)[C@@H](OCc3ccccc3)[C@H](N)[C@H]2OC)[C@H](N)C[C@H](N)[C@H]1O[C@H]1O[C@H](CN)[C@@H](OC)[C@H](OC)[C@H]1OC | 8.4 µM
6 | CCCCCCCCCOC[C@H]1O[C@@H](O[C@@H]2[C@@H](O)[C@H](O[C@H]3O[C@H](CN)[C@@H](O)[C@H](O)[C@H]3O)[C@@H](N)C[C@H]2N)[C@H](O)[C@@H](N)[C@@H]1OCCCCCCCCC | 18.8 µM
7 | NC[C@H]1O[C@H](O[C@H]2[C@H](O)[C@@H](O[C@@H]3O[C@H](COCc4ccc(F)cc4)[C@@H](OCc4ccc(F)cc4)[C@H](N)[C@H]3O)[C@H](N)C[C@@H]2N)[C@H](O)[C@@H](O)[C@@H]1O | 8.1 µM
8 | NC[C@H]1O[C@H](O[C@H]2[C@H](O)[C@@H](O[C@@H]3O[C@H](COCc4ccc(Cl)cc4)[C@@H](OCc4ccc(Cl)cc4)[C@H](N)[C@H]3O)[C@H](N)C[C@@H]2N)[C@H](O)[C@@H](O)[C@@H]1O | 2.5 µM
9 | Cc1ccc(COC[C@H]2O[C@@H](O[C@@H]3[C@@H](O)[C@H](O[C@H]4O[C@H](CN)[C@@H](O)[C@H](O)[C@H]4O)[C@@H](N)C[C@H]3N)[C@H](O)[C@@H](N)[C@@H]2OCc2ccc(C)cc2)cc1 | 4.3 µM
10 | COc1ccc(COC[C@H]2O[C@@H](O[C@@H]3[C@@H](O)[C@H](O[C@H]4O[C@H](CN)[C@@H](O)[C@H](O)[C@H]4O)[C@@H](N)C[C@H]3N)[C@H](O)[C@@H](N)[C@@H]2OCc2ccc(OC)cc2)cc1 | 13 µM
11 | NC[C@H]1O[C@H](O[C@H]2[C@H](O)[C@@H](O[C@@H]3O[C@H](COCc4cccc5ccccc45)[C@@H](OCc4cccc5ccccc45)[C@H](N)[C@H]3O)[C@H](N)C[C@@H]2N)[C@H](O)[C@@H](O)[C@@H]1O | 6.6 µM
12 | CCCCCCCCOC[C@H]1O[C@@H](O[C@@H]2[C@@H](O)[C@H](O[C@H]3O[C@H](CN)[C@@H](O)[C@H](O)[C@H]3O)[C@@H](N)C[C@H]2N)[C@H](O)[C@@H](N)[C@@H]1OCCCCCCCC | 13.6 µM
13 | NC[C@H]1O[C@H](O[C@H]2[C@H](O)[C@@H](O[C@@H]3O[C@H](COCc4cccc(-c5ccccc5)c4)[C@@H](OCc4cccc(-c5ccccc5)c4)[C@H](N)[C@H]3O)[C@H](N)C[C@@H]2N)[C@H](O)[C@@H](O)[C@@H]1O | 6.2 µM
